{"source": "ChEMBL document CHEMBL3763130", "about": "“Recent advances in the development of dual VEGFR and c-Met small molecule inhibitors as anticancer drugs” (Eur J Med Chem, 2016)", "key": {"[1]": {"target": "Vascular endothelial growth factor receptor 1 (Homo sapiens, UniProt P17948)", "sequence (P17948 whole entry)": "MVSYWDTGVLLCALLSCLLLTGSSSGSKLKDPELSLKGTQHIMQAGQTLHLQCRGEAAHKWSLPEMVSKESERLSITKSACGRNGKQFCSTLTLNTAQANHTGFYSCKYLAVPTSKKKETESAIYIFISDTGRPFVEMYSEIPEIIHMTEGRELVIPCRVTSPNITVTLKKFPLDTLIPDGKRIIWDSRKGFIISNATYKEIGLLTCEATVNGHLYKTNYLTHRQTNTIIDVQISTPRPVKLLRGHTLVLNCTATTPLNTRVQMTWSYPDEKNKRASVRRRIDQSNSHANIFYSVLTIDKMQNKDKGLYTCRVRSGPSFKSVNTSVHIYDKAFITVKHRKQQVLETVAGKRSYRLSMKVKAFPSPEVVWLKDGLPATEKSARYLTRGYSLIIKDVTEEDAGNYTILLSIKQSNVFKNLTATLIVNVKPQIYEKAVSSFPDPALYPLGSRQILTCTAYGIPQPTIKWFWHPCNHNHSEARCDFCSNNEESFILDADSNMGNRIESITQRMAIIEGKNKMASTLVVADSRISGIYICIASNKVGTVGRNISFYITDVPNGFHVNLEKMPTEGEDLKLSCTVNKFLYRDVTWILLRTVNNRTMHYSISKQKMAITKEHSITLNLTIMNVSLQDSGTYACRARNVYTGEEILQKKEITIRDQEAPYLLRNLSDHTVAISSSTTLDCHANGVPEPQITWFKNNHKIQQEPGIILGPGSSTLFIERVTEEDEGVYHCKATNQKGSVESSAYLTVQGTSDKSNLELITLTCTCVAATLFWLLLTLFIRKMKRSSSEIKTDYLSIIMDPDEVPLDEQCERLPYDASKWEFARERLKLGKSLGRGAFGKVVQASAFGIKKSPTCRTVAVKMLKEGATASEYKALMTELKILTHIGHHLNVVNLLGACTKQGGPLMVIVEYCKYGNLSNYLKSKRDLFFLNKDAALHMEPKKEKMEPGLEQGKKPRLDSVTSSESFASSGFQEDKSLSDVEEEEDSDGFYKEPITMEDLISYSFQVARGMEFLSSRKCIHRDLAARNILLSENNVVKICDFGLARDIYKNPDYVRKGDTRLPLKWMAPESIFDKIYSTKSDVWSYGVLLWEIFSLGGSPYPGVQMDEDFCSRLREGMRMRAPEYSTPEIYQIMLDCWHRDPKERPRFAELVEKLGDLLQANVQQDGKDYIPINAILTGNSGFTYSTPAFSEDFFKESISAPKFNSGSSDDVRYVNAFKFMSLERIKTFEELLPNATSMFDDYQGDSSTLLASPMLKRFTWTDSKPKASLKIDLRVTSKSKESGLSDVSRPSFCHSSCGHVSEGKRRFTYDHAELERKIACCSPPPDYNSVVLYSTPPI", "assay": "Inhibition of VEGFR-1 (unknown origin) by AlphaScreen assay"}, "[2]": {"target": "Vascular endothelial growth factor receptor 3 (Homo sapiens, UniProt P35916)", "assay": "Inhibition of VEGFR-3 (unknown origin) by AlphaScreen assay"}, "[3]": {"target": "T1, Tyrosine-protein kinase receptor UFO (Homo sapiens, UniProt P30530)", "T1 sequence (P30530 whole entry)": "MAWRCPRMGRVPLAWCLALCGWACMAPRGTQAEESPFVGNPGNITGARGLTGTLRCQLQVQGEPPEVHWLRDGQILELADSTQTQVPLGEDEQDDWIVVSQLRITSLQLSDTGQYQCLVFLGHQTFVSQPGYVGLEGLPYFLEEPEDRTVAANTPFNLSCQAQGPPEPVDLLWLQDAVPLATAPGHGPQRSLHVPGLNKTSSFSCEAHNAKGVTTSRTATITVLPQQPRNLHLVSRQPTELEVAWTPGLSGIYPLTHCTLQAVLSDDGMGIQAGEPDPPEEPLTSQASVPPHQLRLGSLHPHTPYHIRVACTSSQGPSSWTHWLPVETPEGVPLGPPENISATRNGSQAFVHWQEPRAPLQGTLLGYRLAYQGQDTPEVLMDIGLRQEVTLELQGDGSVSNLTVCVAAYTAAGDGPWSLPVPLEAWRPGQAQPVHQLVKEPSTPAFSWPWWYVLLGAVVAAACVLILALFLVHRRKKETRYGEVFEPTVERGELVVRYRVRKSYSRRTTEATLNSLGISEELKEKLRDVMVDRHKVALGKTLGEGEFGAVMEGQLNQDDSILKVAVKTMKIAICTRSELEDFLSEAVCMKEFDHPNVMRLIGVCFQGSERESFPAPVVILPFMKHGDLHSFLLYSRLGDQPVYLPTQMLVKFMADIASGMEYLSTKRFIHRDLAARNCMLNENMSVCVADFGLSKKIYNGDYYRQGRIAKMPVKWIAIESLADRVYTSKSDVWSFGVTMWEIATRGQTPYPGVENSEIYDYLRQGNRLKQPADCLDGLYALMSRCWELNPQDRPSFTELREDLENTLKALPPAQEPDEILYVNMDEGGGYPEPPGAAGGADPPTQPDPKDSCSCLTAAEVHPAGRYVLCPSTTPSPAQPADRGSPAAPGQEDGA", "assay": "Inhibition of Axl (unknown origin)"}, "[4]": {"target": "Macrophage-stimulating protein receptor (Homo sapiens, UniProt Q04912)", "sequence (Q04912 25-304 limits assumed)": "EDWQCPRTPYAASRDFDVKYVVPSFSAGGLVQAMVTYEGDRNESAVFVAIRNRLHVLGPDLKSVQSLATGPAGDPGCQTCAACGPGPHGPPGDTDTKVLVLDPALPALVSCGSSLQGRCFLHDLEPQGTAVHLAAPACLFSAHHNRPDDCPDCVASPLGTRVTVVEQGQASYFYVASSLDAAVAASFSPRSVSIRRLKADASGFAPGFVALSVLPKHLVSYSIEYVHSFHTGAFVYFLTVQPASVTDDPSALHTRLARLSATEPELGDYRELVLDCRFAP", "sequence (Q04912 310-1400 limits assumed)": "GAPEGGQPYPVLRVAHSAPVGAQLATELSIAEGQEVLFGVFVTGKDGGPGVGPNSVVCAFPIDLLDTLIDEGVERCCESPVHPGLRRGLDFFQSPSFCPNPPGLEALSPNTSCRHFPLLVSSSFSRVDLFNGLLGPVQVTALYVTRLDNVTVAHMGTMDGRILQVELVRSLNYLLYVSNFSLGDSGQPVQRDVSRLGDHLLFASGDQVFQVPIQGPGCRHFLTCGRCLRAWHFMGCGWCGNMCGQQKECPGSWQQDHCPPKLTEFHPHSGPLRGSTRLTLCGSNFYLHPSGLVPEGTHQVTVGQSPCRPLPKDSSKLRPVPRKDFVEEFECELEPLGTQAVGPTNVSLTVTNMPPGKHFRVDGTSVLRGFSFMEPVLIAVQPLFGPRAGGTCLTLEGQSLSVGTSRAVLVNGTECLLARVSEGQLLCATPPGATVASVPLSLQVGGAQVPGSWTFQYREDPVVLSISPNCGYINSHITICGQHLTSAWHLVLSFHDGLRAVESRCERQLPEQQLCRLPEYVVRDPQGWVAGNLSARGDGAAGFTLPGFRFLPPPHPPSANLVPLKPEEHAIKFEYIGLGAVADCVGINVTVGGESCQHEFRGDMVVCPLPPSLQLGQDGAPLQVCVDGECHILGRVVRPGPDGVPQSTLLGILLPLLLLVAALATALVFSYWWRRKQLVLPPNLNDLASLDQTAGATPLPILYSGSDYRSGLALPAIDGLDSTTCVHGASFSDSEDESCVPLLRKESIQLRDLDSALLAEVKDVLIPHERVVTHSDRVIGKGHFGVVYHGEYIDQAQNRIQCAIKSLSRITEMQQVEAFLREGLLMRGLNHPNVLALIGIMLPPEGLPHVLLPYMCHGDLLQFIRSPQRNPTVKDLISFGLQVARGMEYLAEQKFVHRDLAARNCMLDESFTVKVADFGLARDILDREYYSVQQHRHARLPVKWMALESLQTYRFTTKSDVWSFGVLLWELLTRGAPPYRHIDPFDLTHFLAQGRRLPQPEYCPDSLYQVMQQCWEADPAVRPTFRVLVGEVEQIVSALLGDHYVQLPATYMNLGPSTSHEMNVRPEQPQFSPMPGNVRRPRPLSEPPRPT", "assay": "Inhibition of Ron (unknown origin)"}, "[5]": {"target": "T2, Receptor-type tyrosine-protein kinase FLT3 (Homo sapiens, UniProt P36888)", "T2 sequence (P36888 whole entry)": "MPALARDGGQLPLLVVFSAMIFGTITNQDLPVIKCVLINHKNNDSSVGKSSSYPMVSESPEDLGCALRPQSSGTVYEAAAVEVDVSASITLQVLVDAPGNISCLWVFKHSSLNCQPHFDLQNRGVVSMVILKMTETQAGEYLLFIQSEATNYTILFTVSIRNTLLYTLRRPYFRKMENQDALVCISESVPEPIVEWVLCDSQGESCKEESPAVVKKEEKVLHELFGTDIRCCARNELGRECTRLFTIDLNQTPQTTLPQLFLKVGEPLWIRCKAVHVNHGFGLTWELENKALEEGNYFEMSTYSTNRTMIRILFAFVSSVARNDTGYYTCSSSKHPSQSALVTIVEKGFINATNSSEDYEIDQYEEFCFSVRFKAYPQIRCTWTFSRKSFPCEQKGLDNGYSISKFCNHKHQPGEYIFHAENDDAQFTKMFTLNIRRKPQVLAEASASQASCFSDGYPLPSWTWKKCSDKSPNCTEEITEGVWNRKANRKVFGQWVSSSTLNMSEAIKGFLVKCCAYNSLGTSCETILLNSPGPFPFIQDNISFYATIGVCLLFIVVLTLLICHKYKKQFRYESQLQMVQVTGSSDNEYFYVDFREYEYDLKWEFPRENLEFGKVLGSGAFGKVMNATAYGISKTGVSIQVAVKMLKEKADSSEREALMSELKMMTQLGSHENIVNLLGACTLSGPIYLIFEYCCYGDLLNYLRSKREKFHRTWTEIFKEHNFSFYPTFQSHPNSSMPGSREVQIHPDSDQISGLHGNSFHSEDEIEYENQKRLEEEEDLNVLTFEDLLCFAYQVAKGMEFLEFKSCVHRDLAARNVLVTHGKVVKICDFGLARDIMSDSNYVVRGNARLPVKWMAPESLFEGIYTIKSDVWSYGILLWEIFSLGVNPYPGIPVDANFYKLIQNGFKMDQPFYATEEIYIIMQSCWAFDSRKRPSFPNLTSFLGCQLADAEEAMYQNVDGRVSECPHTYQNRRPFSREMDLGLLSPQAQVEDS", "assay": "Inhibition of Flt-3 (unknown origin)"}, "[6]": {"assay": "Antitumor activity against mouse B16F10 cells implanted in naive mouse assessed as reduction in metastatic tumor burden at 30 mg/kg, po qd by Zeiss stereoscopic analysis relative to control", "assay_type": "functional, B16-F10", "design": "scale not given: the % may be the effect or the level left"}, "[7]": {"assay": "Antitumor activity against mouse B16F10 cells implanted in naive mouse assessed as reduction in metastatic tumor burden at 100 mg/kg, po qd by Zeiss stereoscopic analysis relative to control", "assay_type": "functional, B16-F10", "design": "scale not given: the % may be the effect or the level left"}, "[8]": {"assay": "Antitumor activity against mouse B16F10 cells implanted in naive mouse assessed as reduction in lung surface tumor burden at 30 mg/kg, po qd by Zeiss stereoscopic analysis relative to control", "assay_type": "functional, B16-F10", "design": "scale not given: the % may be the effect or the level left"}, "[9]": {"assay": "Antitumor activity against mouse B16F10 cells implanted in naive mouse assessed as reduction in lung surface tumor burden at 100 mg/kg, po qd by Zeiss stereoscopic analysis relative to control", "assay_type": "functional, B16-F10", "design": "scale not given: the % may be the effect or the level left"}, "[10]": {"assay": "Antitumor activity against mouse B16F10 cells implanted in naive mouse assessed as tumour growth inhibition at 30 mg/kg, po qd by Zeiss stereoscopic analysis relative to control", "assay_type": "functional", "conditions": "B16-F10, po, read-out: TGI"}, "[11]": {"assay": "Antitumor activity against mouse B16F10 cells implanted in naive mouse assessed as tumour growth inhibition at 100 mg/kg, po qd by Zeiss stereoscopic analysis relative to control", "assay_type": "functional", "conditions": "B16-F10, po, read-out: TGI"}, "[12]": {"target": "Vascular endothelial growth factor receptor 2 (Homo sapiens, UniProt P35968)", "assay": "Inhibition of VEGFR-2 autophosphorylation in HUVEC after 1 hr by Western blot analysis", "assay_type": "cell-based"}, "[13]": {"assay": "Cytotoxicity against human SNU5 cells assessed as inhibition of tumour growth after 3 days by WST-8 assay", "assay_type": "functional, cell-based", "conditions": "SNU-5, 72 h"}, "[14]": {"assay": "Cytotoxicity against human Hs 746T cells assessed as inhibition of tumour growth after 3 days by WST-8 assay", "assay_type": "functional, cell-based", "conditions": "Hs746T, 72 h"}, "[15]": {"assay": "Cytotoxicity against human EBC1 cells assessed as inhibition of tumour growth after 3 days by WST-8 assay", "assay_type": "functional, cell-based", "conditions": "EBC-1, 72 h"}, "[16]": {"assay": "Cytotoxicity against human MKN45 cells assessed as inhibition of tumour growth after 3 days by WST-8 assay", "assay_type": "functional, cell-based", "conditions": "MKN-45, 72 h"}, "HUVEC [17]": {"test_system": "HUVEC", "assay": "Antiangiogenic activity in HUVEC assessed as inhibition of VEGF induced cell proliferation after 3 days by WST-1 assay", "assay_type": "functional, cell-based", "conditions": "Homo sapiens, 72 h"}, "HUVEC [18]": {"test_system": "HUVEC", "assay": "Antiangiogenic activity in HUVEC assessed as inhibition of HGF induced cell proliferation after 3 days by WST-1 assay", "assay_type": "functional, cell-based", "conditions": "Homo sapiens, 72 h"}, "HUVEC [19]": {"test_system": "HUVEC", "assay": "Antiangiogenic activity in HUVEC assessed as inhibition of bFGF induced cell proliferation after 3 days by WST-1 assay", "assay_type": "functional, cell-based", "conditions": "Homo sapiens, 72 h"}, "[20]": {"target": "Hepatocyte growth factor receptor (Homo sapiens, UniProt P08581)", "sequence (P08581 whole entry)": "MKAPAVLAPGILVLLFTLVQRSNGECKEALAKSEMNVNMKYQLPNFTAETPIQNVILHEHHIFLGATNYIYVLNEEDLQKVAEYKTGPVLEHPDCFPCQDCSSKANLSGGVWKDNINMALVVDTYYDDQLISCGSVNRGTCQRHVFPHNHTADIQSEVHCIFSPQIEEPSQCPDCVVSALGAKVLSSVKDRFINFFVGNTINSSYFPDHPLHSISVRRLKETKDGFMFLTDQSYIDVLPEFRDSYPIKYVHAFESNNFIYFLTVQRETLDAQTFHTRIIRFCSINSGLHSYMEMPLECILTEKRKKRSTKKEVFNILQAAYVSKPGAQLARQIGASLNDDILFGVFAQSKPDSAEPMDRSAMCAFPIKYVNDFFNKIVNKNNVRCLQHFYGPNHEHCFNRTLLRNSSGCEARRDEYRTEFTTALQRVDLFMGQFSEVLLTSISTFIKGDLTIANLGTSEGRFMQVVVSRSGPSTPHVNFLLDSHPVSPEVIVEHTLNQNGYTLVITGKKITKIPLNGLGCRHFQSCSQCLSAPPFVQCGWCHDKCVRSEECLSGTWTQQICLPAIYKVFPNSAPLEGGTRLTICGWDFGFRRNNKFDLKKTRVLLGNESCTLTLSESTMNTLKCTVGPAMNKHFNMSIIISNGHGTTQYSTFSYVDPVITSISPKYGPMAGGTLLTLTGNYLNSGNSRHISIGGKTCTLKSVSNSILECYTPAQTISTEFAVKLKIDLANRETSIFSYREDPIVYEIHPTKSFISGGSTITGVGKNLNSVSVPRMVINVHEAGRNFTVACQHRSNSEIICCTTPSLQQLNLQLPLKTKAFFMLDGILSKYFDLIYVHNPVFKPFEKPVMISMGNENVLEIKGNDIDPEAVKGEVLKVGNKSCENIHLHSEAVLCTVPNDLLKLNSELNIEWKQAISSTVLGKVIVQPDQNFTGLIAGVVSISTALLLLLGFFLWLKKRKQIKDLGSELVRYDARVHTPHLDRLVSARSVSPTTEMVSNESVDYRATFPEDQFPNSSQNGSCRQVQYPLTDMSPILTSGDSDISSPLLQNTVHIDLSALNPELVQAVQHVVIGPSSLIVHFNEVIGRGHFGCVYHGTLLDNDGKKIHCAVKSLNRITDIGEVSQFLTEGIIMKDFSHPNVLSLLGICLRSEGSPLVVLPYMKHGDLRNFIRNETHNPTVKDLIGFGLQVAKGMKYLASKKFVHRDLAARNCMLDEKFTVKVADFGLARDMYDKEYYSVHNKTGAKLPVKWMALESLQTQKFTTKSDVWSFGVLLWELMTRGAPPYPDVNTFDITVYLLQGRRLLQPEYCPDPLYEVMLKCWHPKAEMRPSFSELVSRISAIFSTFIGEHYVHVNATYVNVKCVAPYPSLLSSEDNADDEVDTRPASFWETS", "assay": "Inhibition of c-Met (unknown origin)"}, "[21]": {"assay": "Cytotoxicity against HUVEC assessed as inhibition of VEGF-independent growth after 72 hrs by CellTiter-Glo method", "assay_type": "cell-based", "conditions": "human, HUVEC cells"}}, "note": "pIC50, pKi: −log10 of the molar value."}
{"smiles": "CC1=[N+](c2ccccc2)C(=O)C(C(=O)Nc2ccc(Oc3ccc4nc(NC(=O)C5CC5)cn4c3)c(F)c2)C=C1", "note": "(stereo not drawn)", "values": [{"measurement": "pIC50", "setting": "[1]", "value": 8.11}, {"measurement": "pIC50", "setting": "[2]", "value": 8.26}]}
{"smiles": "Nc1nccc(Oc2ccc(NC(=O)c3c[nH]cc(-c4ccc(F)cc4)c3=O)cc2F)c1Cl", "note": "[BMS-794833]", "values": [{"measurement": "pIC50", "setting": "[3]", "value": "> 8.52"}, {"measurement": "pIC50", "setting": "[4]", "value": "> 8.52"}, {"measurement": "pIC50", "setting": "[5]", "value": "> 8.52"}]}
{"smiles": "COc1cc2c(Oc3ccc(NC(=O)C4(C(=O)Nc5ccc(F)cc5)CC4)cc3F)ccnc2cc1OCCCN1CCOCC1", "note": "[FORETINIB]", "values": [{"measurement": "Activity", "setting": "[6]", "value": 31, "unit": "%"}, {"measurement": "Activity", "setting": "[7]", "value": 62, "unit": "%"}, {"measurement": "Activity", "setting": "[8]", "value": 50, "unit": "%"}, {"measurement": "Activity", "setting": "[9]", "value": 58, "unit": "%"}, {"measurement": "inhibition in vivo at 30 mg/kg", "setting": "[10]", "value": 64, "unit": "%"}, {"measurement": "inhibition in vivo at 100 mg/kg", "setting": "[11]", "value": 87, "unit": "%"}]}
{"smiles": "CN1CCN(C2CCN(C(=O)Nc3cc(Oc4ccc(NC(=O)C5(C(=O)Nc6ccc(F)cc6)CC5)c(F)c4)ccn3)CC2)CC1", "note": "[GOLVATINIB]", "values": [{"measurement": "pIC50", "setting": "[12]", "value": 7.80}, {"measurement": "pIC50", "setting": "[13]", "value": 7.62}, {"measurement": "pIC50", "setting": "[14]", "value": 7.64}, {"measurement": "pIC50", "setting": "[15]", "value": 8.21}, {"measurement": "pIC50", "setting": "[16]", "value": 7.43}, {"measurement": "pIC50", "setting": "HUVEC [17]", "value": 7.08}, {"measurement": "pIC50", "setting": "HUVEC [18]", "value": 7.77}, {"measurement": "pIC50", "setting": "HUVEC [19]", "value": "< 6.00"}]}
{"smiles": "Cn1cc(-c2ccc3nnc(C(F)(F)c4ccc5ncccc5c4)n3n2)cn1", "note": "[JNJ-38877605]", "values": [{"measurement": "pIC50", "setting": "[20]", "value": 8.40}]}
{"smiles": "CN(C[C@@H]1COCCO1)S(=O)(=O)Nc1ccc2ccc3ncc(-c4cnn(C)c4)cc3c(=O)c2c1", "note": "[MK-2461]", "values": [{"measurement": "pIC50", "setting": "[20]", "value": 9.40}]}
{"smiles": "CNC(=O)c1cc2c(Oc3ccc(NC(=S)NC(=O)Cc4ccccc4)cc3F)ccnc2cc1OC", "note": "[TAS-115]", "values": [{"measurement": "GI50 at 72 h", "setting": "[21]", "value": "> 10000", "unit": "nM"}]}
{"smiles": "O=C1NC(=O)[C@@H](c2cn3c4c(cccc24)CCC3)[C@@H]1c1c[nH]c2ccccc12", "note": "[TIVANTINIB]", "values": [{"measurement": "pKi", "setting": "[20]", "value": 6.45}]}
